Measured values: patent publication US11834417B2, “Compositions for the treatment of hypertension and/or fibrosis” (Vectus Biosystems Limited, priority 2016, dated 2023)

Experiments:
[1] = tested on: spontaneous hypertensive rats (SHR); assay: Systolic blood pressure by tail cuff plethysmography in SHR on a 2.2% salt diet; type: in vivo, rat
Excerpt: Fourteen week old spontaneous hypertensive rats (SHR; Australian Animal Resources Centre, WA) on a 2.2% salt diet (Glenn Forrest Stockfeeders, WA) were randomized to the following treatment groups: 14-week control, or VB0002 infusion (20 pmol/kg/min in 20% DMSO) or vehicle control infusion (20% DMSO) for 4 weeks. VB0002 and vehicle control infusions were via Alzet osmotic minipump, which was inserted under general anaesthesia (Isoflurane 3% in oxygen) at 14 weeks. […]
(§1) The 14-week control group were anaesthetized using isoflurane (3%) delivered in oxygen, then had blood sampled and hearts and kidneys harvested for quantitation of fibrosis. The remaining groups were weighed and had blood pressure measured by tail cuff plethysmography (ADI Instruments) twice weekly for a further 4 weeks. After 4 weeks treatment, rats were anaesthetized and samples collected as per the 14-week control group. Results are mean±sem for n=5 rats per group.

[2] = tested on: spontaneous hypertensive rats (SHR); assay: Myocardial fibrosis quantitation (Masson's Trichrome) in SHR on a 2.2% salt diet; type: in vivo, rat; conditions: 4 weeks
Excerpt: Fourteen week old spontaneous hypertensive rats (SHR; Australian Animal Resources Centre, WA) on a 2.2% salt diet (Glenn Forrest Stockfeeders, WA) were randomized to the following treatment groups: 14-week control, or VB0002 infusion (20 pmol/kg/min in 20% DMSO) or vehicle control infusion (20% DMSO) for 4 weeks. VB0002 and vehicle control infusions were via Alzet osmotic minipump, which was inserted under general anaesthesia (Isoflurane 3% in oxygen) at 14 weeks.
Fourteen week old spontaneous hypertensive rats on a 2.2% salt diet were also randomized to the following treatment groups: 14-week control, or VB0003 administration (10, 100 or 500 pmol/kg/min in 5% ethanol), VB0005 administration (100 pmol/kg/min in 5% ethanol) or drinking solution (5% ethanol) administration for 4 weeks.
as §1
For quantitation of fibrosis, tissue slices ≤3 mm thick were fixed in 10% buffered formalin for 24 hours, processed and embedded in paraffin. Three μm transverse sections were stained using Masson's Trichrome. A minimum of 20 random fields at 40× magnification from transverse sections ([…]) were digitized. The degree of fibrosis was determined as a percent of field area of each digitized image using Image-Pro Plus V.5 (Media Cybernetics, Bethesda, Md., USA), and then averaged to determine the level of fibrosis for each rat.

[3] = in 5% ethanol in the drinking solution for 4 weeks (FIG. 9:), compared to 18 week controls (p<0.0005)
[4] = 100 pmol/kg/min in drinking solution (5% ethanol), compared to 14 week controls
[5] = 100 pmol/kg/min in drinking solution (5% ethanol), compared to 18 week controls

Compound | Systolic blood pressure ([1]; in 20% DMSO intravenously via osmotic minipump for 4 weeks, compared to 18 week controls (FIG. 8, p<0.005)) | Myocardial fibrosis ([2]; 20 pmol/kg/min infusion via osmotic minipump, compared to 14 week controls (FIG. 10)) | Myocardial fibrosis ([2]; 20 pmol/kg/min infusion via osmotic minipump, compared to 18 week controls (FIG. 10)) | melting point | Systolic blood pressure [1, 3] | Myocardial fibrosis [2, 4] | Myocardial fibrosis [2, 5] | Myocardial fibrosis ([2]; 10 pmol/kg/min in drinking solution (5% ethanol), compared to 18 week controls) | Myocardial fibrosis ([2]; 500 pmol/kg/min in drinking solution (5% ethanol), compared to 14 week controls) | Myocardial fibrosis ([2]; 500 pmol/kg/min in drinking solution (5% ethanol), compared to 18 week controls)
NC(=O)Cc1c(Cc2ccccc2)ncn1Cc1cccc(O)c1 [VB0002, 2-[4-Benzyl-1-(3-hydroxybenzyl)-1H-imidazol-5-yl]acetamide] | reduced | reduced | reduced | 249 °C (dec.) | – | – | – | – | – | –
NC(=O)CC[C@H]1CN(c2ccccc2)CCN1c1cccc(O)c1 [VB0005, (S)-3-[1-(3-Hydroxy)phenyl-4-phenylpiperazin-2-yl]propanamide] | – | – | – | – | reduced | reduced | reduced | – | – | –
CC(O)Cc1c(-c2ccccc2)ncn1Cc1cccc(O)c1 (centres unmarked) [VB0003, 3-[5-(2-hydroxypropyl)-4-phenyl-imidazol-1-ylmethyl]-phenol] | – | – | – | – | reduced | reduced | reduced | reduced | reduced | reduced
CC(O)Cc1c(-c2ccccc2)ncn1Cc1cccc(O)c1.Cl (centres unmarked) | – | – | – | 84 to 88 °C | – | – | – | – | – | –
